Assay results as given in US20010056582A1, “PAIRED MUTATIONS” (priority 1997, published 2001).
Counter-ions that a name gives are not always drawn. Like-named read-outs stand apart in the source and are kept apart here.

Experiments:
mice = settings: cited from earlier work; for mutation frequency compared with ENU: other chemical mutagens versus ENU (approximately 1 per 1000 mice)
[1] = tested on: post-cell stages of spermatogenesis (male germ cells); settings: cited from earlier work; for Lethal/tested mutations: number of lethal mutations among those tested, for chlorambucil includes mutations with evidence for deletion
male mice = experiment: Sterility of male mice after ENU treatment; assay type: in vivo
Protocol: Mutations in the DNA of the premeiotic spermatogonia of male mice can be induced with the DNA alkylating agent ethylnitrosourea (ENU). Typically, 3 separate doses of 100 mg/kg body weight ENU are injected interperitoneally, with each injection separated by a one week interval. The animals undergo a period of sterility (usually 8-14 weeks), after which they can be mated to nonmutagenized females to produce offspring (the F1 generation) which carry heterozygous mutations in their genome (FIG. 1).
Each animal carries the same set of heterozygous mutations throughout both somatic and germ tissue. To generate large numbers of offspring for a paired sample set, 300 males are treated with ENU. Approximately 100 of these mice will be permanently sterile; the remaining 200 are permanently mated with 2 females each. […] In this way a set of paired samples comprised of over 30,000 animals can be produced within a year, including the time required to establish the ENU treated breeding males. The process can be scaled up by ENU treatment and breeding of additional male mice.

zebrafish = settings: ENU mutagenesis; cited from earlier work
[2] = experimental minus historical control 43/801,406, for period of maximum response, at the listed exposure
[3] = rate relative to exposure in mol per kg body weight

| SMILES | mutation frequency compared with ENU (mice) | Induced mutation rate per locus [1, 2] | Lethal/tested mutations [1] | Induced mutation rate per locus per mol [1, 3] [per mol] | other results |
| --- | --- | --- | --- | --- | --- |
| CN(N=O)C(N)=O [MNU, N-methyl N-nitrosourea] | same type of mutation frequency | 90.2 × 10^−5 | 0/17 | 1.2 | – |
| CNNCc1ccc(C(=O)NC(C)C)cc1.Cl [Pre, phocarbazine hydrochloride] | same type of mutation frequency | 21.6 × 10^−5 | – | 0.1 | – |
| C=CC(N)=O [AA, acrylamide monomer] | – | – | – | – | Induced mutation rate per locus ([1]; mouse, in vivo): 18.2 × 10^−5; Induced mutation rate per locus per mol ([1]; mouse, in vivo): 0.1 per mol |
| O=P1(N(CCCl)CCCl)NCCCO1 (stereo not drawn) [Cp, cyclophosphamide] | – | 24.3 × 10^−5 | 3/5 | 0.5 | – |
| COS(C)(=O)=O [MeMs, methyl methanesulforate] | same type of mutation frequency | 24.0 × 10^−5 | 10/14 | 0.7 | – |
| CCN(N=O)C(N)=O [ENU, N-ethyl-N-nitrosourea] | – | 10.6 × 10^−5 | 0/5 | 0.2 | period of sterility (male mice; male mice, 3 doses of 100 mg/kg ENU interperitoneally at one week intervals): 8-14 weeks; mice permanently sterile (male mice; of 300 males treated with ENU): Approximately 100 mice; frequency of mutations, determined for numerous genes (mice; for any given gene screened, phenotype-based): 0.5-1.5 mutant mice per 1000 mice; frequency of a mutation in any given gene (mice; offspring of ENU mutagenized male mice, based on phenotypic assays): approximately 1 per 1000 mice; locus-specific mutation frequency (zebrafish): 1/1000 |
| CCOS(C)(=O)=O [EtMs, ethyl methanesulforate] | – | 20.9 × 10^−5 | 0/1 | 0.1 | – |
| CCOS(=O)(=O)OCC [Et2SO4, diethyl sulfate] | – | – | 4/4 | – | Induced mutation rate per locus ([1]; mouse, in vivo): 11.2 × 10^−5; Induced mutation rate per locus per mol ([1]; mouse, in vivo): 0.1 per mol |
| O=C(O)CCCc1ccc(N(CCCl)CCCl)cc1 [Chl, chlorambucil] | – | 127.3 × 10^−5 | 1/4 | 38.7 | – |
